Assay results from patent publication US11357779B2 (G1 Therapeutics, Inc., priority 2018, dated 2022).
Where two headings read alike, the source gives them in different places.

Assay: Plasma concentration versus time of Compound I and metabolite Compound III in patients dosed QD or BID with Form B of Compound II plus fulvestrant
Type: in vivo, human
Conditions: human, plasma, oral, 650 mg; for concentration at 8 day: Day 8; for concentration at 15 day: Day 15; for concentration at 22 day: Day 22; for concentration at 0 h: Day 29, 0.0 h; for concentration at 1 h: Day 29, 1.0 h; for concentration at 2 h: Day 29, 2.0 h; for concentration at 3 h: Day 29, 3.0 h; for concentration at 4 h: Day 29, 4.0 h; for concentration at 6 h: Day 29, 6.0 h
Text: Patients were enrolled into 1 of 2 parallel, independently operating, dose-escalation dosing cohorts with Form B of Compound II administered continuously either once daily (QD) or twice daily (BID) with food with fixed-dose fulvestrant (intramuscularly every 14 days for the first three injections and then every 28 days). Pre- or perimenopausal patients also received goserelin for the duration of study treatment. A […] agonist was started at least 28 days before the first dose of Form B, and those patients who were taking another LHRH agonist were switched to goserelin on Day 1. Patients were split into […] cohorts providing once a day (QD) dosing of 200 mg, 300 mg, 400 mg, 500 mg, or 650 mg of Form B, or twice a day (BID) dosing of 100 mg, 150 mg, or 200 mg of Form B. The second dose in BID cohorts was not administered in the evening until at least 12 hours after the initial morning dose of Form B. The dosing cohorts for Form B of Compound II are provided in Table 1.
Blood samples were collected at the following time points relative to the morning dose of Form B at Day 1 and at Day 29: pre-dose (0 hour) and 1, 2, 3, 4, 6, 8, 10, 12 (prior to the evening dose in the BID cohorts), and 24 (prior to the next day's morning dose) hours after dosing. A 5-minute time window was allowed for samples collected between the predose and 3 hours after Form B dosing. A 15-minute window was allowed for samples collected between 4 to 12 hours after Form B dosing. A 1-hour window was allowed for the sample collected 24 hours after Form B dosing. Blood samples for Compound I PK trough levels were collected pre-dose at Day 8, Day 15, and Day 22 prior to the morning administration of Compound I. Plasma concentrations of Compound I and its metabolite, Compound III, were measured using validated methods.
Analysis of plasma concentration versus time data for calculation of standard pharmacokinetic (PK) parameters following oral administration was conducted using Phoenix WinNonlin version 6.3 using actual blood sampling times.

[1] = Cohort 5, 650 mg QD of Form B, read-out: Trough Compound I Concentration, Max
[2] = Cohort 5, 650 mg QD of Form B, read-out: Trough Compound I Concentration, Mean
[3] = Cohort 5, 650 mg QD of Form B, read-out: Trough Compound I Concentration, Median
[4] = Cohort 5, 650 mg QD of Form B, read-out: Trough Compound I Concentration, Min
[5] = Cohort 5, 650 mg QD of Form B, read-out: Compound I Concentration, Max
[6] = Cohort 5, 650 mg QD of Form B, read-out: Compound I Concentration, Mean
[7] = Cohort 5, 650 mg QD of Form B, read-out: Compound I Concentration, Median
[8] = Cohort 5, 650 mg QD of Form B, read-out: Compound I Concentration, Min

## CC(C)N1CCN(c2ccc(Nc3ncc4cc5n(c4n3)C3(CCCCC3)CNC5=O)nc2)CC1 [Compound I, 2′-((5-(4-isopropylpiperazin-1-yl)pyridin-2-yl)amino)-7′,8′-dihydro-6′H-spiro[cyclohexane-1,9′-pyrazino[1′,2′:1,5]pyrrolo[2,3-d]pyrimidin]-6′-one]
650 mg QD of Form B, Day 1, 8.0 h, Median, read-out: Compound I Concentration
  concentration at 8 h: 60.3 ng/mL
650 mg QD of Form B, Day 1, 10.0 h, Mean, read-out: Compound I Concentration
  concentration at 10 h: 48.4 ng/mL
650 mg QD of Form B, Day 1, 10.0 h, Median, read-out: Compound I Concentration
  concentration at 10 h: 47.9 ng/mL
650 mg QD of Form B, Day 1, 12.0 h, Mean, read-out: Compound I Concentration
  concentration at 12 h: 37.4 ng/mL
650 mg QD of Form B, Day 1, 12.0 h, Median, read-out: Compound I Concentration
  concentration at 12 h: 37.3 ng/mL
650 mg QD of Form B, Day 1, […], Mean, read-out: Compound I Concentration
  concentration at 24 h: 17.1 ng/mL
650 mg QD of Form B, Day 1, […], Median, read-out: Compound I Concentration
  concentration at 24 h: 16 ng/mL
[1]
  concentration at 8 day: 43.9 ng/mL
  concentration at 15 day: 30.7 ng/mL
  concentration at 22 day: 43.7 ng/mL
[2]
  concentration at 8 day: 28.9 ng/mL
  concentration at 15 day: 25.7 ng/mL
  concentration at 22 day: 30.3 ng/mL
[3]
  concentration at 8 day: 28.3 ng/mL
  concentration at 15 day: 27.4 ng/mL
  concentration at 22 day: 24 ng/mL
[4]
  concentration at 8 day: 17 ng/mL
  concentration at 15 day: 19.1 ng/mL
  concentration at 22 day: 23.3 ng/mL
[5]
  concentration at 0 h: 28.9 ng/mL
  concentration at 1 h: 29.6 ng/mL
  concentration at 2 h: 34.9 ng/mL
  concentration at 3 h: 39.5 ng/mL
  concentration at 4 h: 43.8 ng/mL
  concentration at 6 h: 79.3 ng/mL
[6]
  concentration at 0 h: 20.9 ng/mL
  concentration at 1 h: 20.9 ng/mL
  concentration at 2 h: 25.9 ng/mL
  concentration at 3 h: 28.4 ng/mL
  concentration at 4 h: 33.1 ng/mL
  concentration at 6 h: 58.8 ng/mL
[7]
  concentration at 0 h: 22.5 ng/mL
  concentration at 1 h: 20.9 ng/mL
  concentration at 2 h: 25.9 ng/mL
  concentration at 3 h: 28.4 ng/mL
  concentration at 4 h: 33.1 ng/mL
  concentration at 6 h: 58.8 ng/mL
[8]
  concentration at 0 h: 11.4 ng/mL
  concentration at 1 h: 12.1 ng/mL
  concentration at 2 h: 16.8 ng/mL
  concentration at 3 h: 17.2 ng/mL
  concentration at 4 h: 22.3 ng/mL
  concentration at 6 h: 38.2 ng/mL
Cohort 5, 650 mg QD of Form B, Day 29, 8.0 h, read-out: Compound I Concentration, Max
  concentration at 8 h: 88.7 ng/mL
Cohort 5, 650 mg QD of Form B, Day 29, 8.0 h, read-out: Compound I Concentration, Mean
  concentration at 8 h: 66 ng/mL
Cohort 5, 650 mg QD of Form B, Day 29, 8.0 h, read-out: Compound I Concentration, Median
  concentration at 8 h: 66 ng/mL
Cohort 5, 650 mg QD of Form B, Day 29, 8.0 h, read-out: Compound I Concentration, Min
  concentration at 8 h: 43.2 ng/mL
Cohort 5, 650 mg QD of Form B, Day 29, 10.0 h, read-out: Compound I Concentration, Max
  concentration at 10 h: 78.2 ng/mL
Cohort 5, 650 mg QD of Form B, Day 29, 10.0 h, read-out: Compound I Concentration, Mean
  concentration at 10 h: 58.1 ng/mL
Cohort 5, 650 mg QD of Form B, Day 29, 10.0 h, read-out: Compound I Concentration, Median
  concentration at 10 h: 58.1 ng/mL
Cohort 5, 650 mg QD of Form B, Day 29, 10.0 h, read-out: Compound I Concentration, Min
  concentration at 10 h: 37.9 ng/mL
Cohort 5, 650 mg QD of Form B, Day 29, 12.0 h, read-out: Compound I Concentration, Max
  concentration at 12 h: 63.2 ng/mL
Cohort 5, 650 mg QD of Form B, Day 29, 12.0 h, read-out: Compound I Concentration, Mean
  concentration at 12 h: 46.3 ng/mL
Cohort 5, 650 mg QD of Form B, Day 29, 12.0 h, read-out: Compound I Concentration, Median
  concentration at 12 h: 46.3 ng/mL
Cohort 5, 650 mg QD of Form B, Day 29, 12.0 h, read-out: Compound I Concentration, Min
  concentration at 12 h: 29.4 ng/mL
Cohort 5, 650 mg QD of Form B, Day 29, […], read-out: Compound I Concentration, Max
  concentration at 24 h: 27.8 ng/mL
Cohort 5, 650 mg QD of Form B, Day 29, […], read-out: Compound I Concentration, Mean
  concentration at 24 h: 24.3 ng/mL
Cohort 5, 650 mg QD of Form B, Day 29, […], read-out: Compound I Concentration, Median
  concentration at 24 h: 24.3 ng/mL
Cohort 5, 650 mg QD of Form B, Day 29, […], read-out: Compound I Concentration, Min
  concentration at 24 h: 20.7 ng/mL
